Measurements as given in US20190135834A1, “5-SUBSTITUTED AZABENZIMIDAZOLE DERIVATIVE HAVING ???? ACTIVATION ACTION” (Shionogi & Co., Ltd., priority 2016, published 2019).

Target: T1, Human AMPK α2ß2γ1 (Homo sapiens, UniProt O43741+P54646)
T1 construct: The full length cDNAs of human AMPK ß2 (NM_005399.3) and human AMPK α2 (NM_006252.3); The full length cDNAs of human AMPK ß2 (NM_005399.3); 6xHis (N); made in house; host or cells: Escherichia coli BL21 CodonPlus (DE3)-RIL
Assay: Test Example 2: evaluation of an activator for AMP-activated protein kinase (AMPK), LabChip mobility shift assay with CaMKK2-phosphorylated enzyme
Assay type: biochemical
Conditions: for EC150 (compound concentration showing 150% relative to the control (100%)): FL-Peptide 7 substrate, 25° C., 2 hours; for Emax: read-out: Emax (maximum rate of increase in activity within the measurement range)
Protocol: The full length cDNAs of human AMPK ß2 (NM_005399.3) and human AMPK α2 (NM_006252.3) were inserted into the MCS1 and MCS2 of the pETDuet-1 vector to prepare a human AMPK ß2 and human AMPK α2 (6× His tag at the 5′ terminus) expressing plasmid. The plasmid was cotransfected with an expression plasmid, in which the full length cDNA of human AMPK γ1 (NM_002733.3) had been inserted into pET28b(+), into BL21 CodonPlus (DE3)-RIL to obtain an expression strain. The expression strain was cultured in TB medium, followed by induction with 0.5 mM IPTG, and cultured at 25° C. for 3 hours and then harvested. After ultrasonication, supernatant was collected and applied to Histrap FF column (GE) and RESOURCE Q column (GE) to prepare 12.5 mg of purified sample containing three types of subunit from 1.8 L of broth.
Preparation method of human CaMKK2 used to impart activity to AMPK An expression vector, in which the full length cDNA of human CAMKK ß (NM_172226.1) had been inserted into pGEX-6P-3, was transfected into BL21 Star (DE3). The expression strain was cultured in TB medium, followed by induction with 0.5 mM IPTG, and cultured at 25° C. for 3 hours and then harvested. After ultrasonication, supernatant was collected and applied to GSTrap FF column (GE) to prepare 14 mg of GST-fused CAMKK ß from 720 ml of broth.
Thus, phosphorylation treatment was carried out as pretreatment.
Human AMPK α2ß2γ1 in an amount to give a conversion rate of approximately 10% by reaction for 2 hours, and CaMKK2 in an amount capable of sufficiently imparting activity to AMPK for one hour were mixed in a buffer solution consisting of a 50 mM HEPES-NaOH buffer solution (pH 7.0), 100 mM NaCl, 5 mM magnesium chloride, 0.1% bovine serum albumin, 0.2 mM sodium orthovanadate(V), 1 mM ethylene glycol-bis(2-aminoethyl ether)-N,N,N′,N′-tetraacetic acid (EGTA), 5 mM disodium ß-glycerophosphate, 1 mM dithiothreitol and 0.2 mM ATP, and the resulting liquid was left to stand at 25° C. for 1 to 1.5 hours to sufficiently phosphorylate AMPK.
After that, to the enzyme liquid, which had been subjected to phosphorylation treatment, a compound dissolved in DMSO was added so as to have a 1% DMSO concentration. The resulting liquid was left to stand for 10 minutes.
To the liquid, a substrate solution consisting of a 50 mM HEPES-NaOH buffer solution (pH 7.0), 100 mM NaCl, 10 mM magnesium chloride, 0.1% bovine serum albumin, 0.2 mM sodium orthovanadate(V), 1 mM ethylene glycol-bis(2-aminoethyl ether)-N,N,N′,N′-tetraacetic acid (EGTA), 5 mM disodium ß-glycerophosphate, 2 mM dithiothreitol, 0.4 mM ATP and 3 μM FL-Peptide 7 (manufactured by Caliper Life Sciences, Inc.) was added in equal amount (10 μl in total). The resulting liquid was allowed to react at 25° C. for 2 hours, and 10 μl of 20 mM EDTA was added thereto to stop the reaction.
To detect phosphorylated fluorescent substrates, the reaction mixture was applied to a measuring device, LabChip EZ Reader II manufactured by Caliper Life Science, Inc., for detecting fluorescence by using differences in mobility due to differences in charge. The setting conditions for the device were pressure, −1.5 PSI; upstream voltage, −2250 V; downstream voltage, −400 V; post sample buffer sip time, 40 seconds; final delay, 120 seconds; and peak order, Product First.
A conversion rate was calculated from the peak heights of the obtained substrate and product. The conversion rate when not containing a compound was used as a control, and a concentration dependent curve was made by plotting the rate of increase in activity to the control at each concentration of a compound.

T1 sequence (P54646 whole entry): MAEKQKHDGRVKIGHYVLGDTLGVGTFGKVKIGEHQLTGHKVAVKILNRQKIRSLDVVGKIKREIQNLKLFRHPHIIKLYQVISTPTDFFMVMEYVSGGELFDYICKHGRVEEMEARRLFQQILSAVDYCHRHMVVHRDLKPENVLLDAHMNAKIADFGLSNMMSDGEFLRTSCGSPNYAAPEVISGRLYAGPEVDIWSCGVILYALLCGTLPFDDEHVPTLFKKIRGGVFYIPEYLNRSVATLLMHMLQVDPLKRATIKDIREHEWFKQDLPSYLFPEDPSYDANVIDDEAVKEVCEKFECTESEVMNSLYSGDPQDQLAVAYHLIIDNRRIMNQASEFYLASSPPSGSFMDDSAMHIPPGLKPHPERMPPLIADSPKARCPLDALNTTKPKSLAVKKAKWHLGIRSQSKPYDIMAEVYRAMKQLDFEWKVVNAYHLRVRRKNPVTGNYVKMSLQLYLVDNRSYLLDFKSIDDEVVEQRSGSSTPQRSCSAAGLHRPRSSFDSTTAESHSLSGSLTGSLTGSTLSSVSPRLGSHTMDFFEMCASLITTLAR
T1 sequence (O43741 whole entry): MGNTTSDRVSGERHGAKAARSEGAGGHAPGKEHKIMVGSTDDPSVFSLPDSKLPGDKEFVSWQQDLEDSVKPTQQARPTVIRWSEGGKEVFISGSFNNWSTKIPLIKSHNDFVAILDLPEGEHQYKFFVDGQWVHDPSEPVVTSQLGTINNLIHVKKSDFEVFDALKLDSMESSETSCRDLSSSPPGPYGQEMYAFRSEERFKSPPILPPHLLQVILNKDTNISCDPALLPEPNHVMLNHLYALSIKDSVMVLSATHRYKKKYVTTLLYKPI
T1 sequence (P54619 whole entry partner): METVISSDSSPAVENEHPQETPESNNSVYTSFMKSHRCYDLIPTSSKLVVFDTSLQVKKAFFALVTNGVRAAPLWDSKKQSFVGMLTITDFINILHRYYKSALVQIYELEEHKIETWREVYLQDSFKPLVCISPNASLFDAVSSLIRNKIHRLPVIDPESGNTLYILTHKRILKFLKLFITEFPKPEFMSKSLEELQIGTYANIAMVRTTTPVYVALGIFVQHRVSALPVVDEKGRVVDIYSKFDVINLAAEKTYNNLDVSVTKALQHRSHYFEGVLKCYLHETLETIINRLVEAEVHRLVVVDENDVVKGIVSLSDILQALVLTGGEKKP

Row | SMILES | EC150 (compound concentration showing 150% relative to the control (100%)) [nM] | Emax (relative to control (100%)) [%] | Emax (maximum rate of increase in activity within the measurement range) (relative to control (100%)) [%]
1 | COc1ncc(-c2cc(F)c3c(c2)CC[C@@H]3Nc2nc3nc(O[C@@H]4CO[C@H]5[C@@H]4OC[C@H]5O)[nH]c3cc2Cl)cn1 [Compound I-2-56] | 0.81 | 681 | –
2 | CC(C)n1cc(-c2cc(F)c3c(c2)CC[C@@H]3Nc2nc3nc(O[C@@H]4CO[C@H]5[C@@H]4OC[C@H]5O)[nH]c3cc2Cl)ccc1=O [Compound I-2-48] | 6.2 | 737 | –
3 | O=C1CCCN1CCOc1cc(F)c2c(c1)CCC2Nc1nc2nc(O[C@@H]3CO[C@H]4[C@@H]3OC[C@H]4O)[nH]c2cc1Cl (stereo partly shown) [Compound I-1-79] | 4.2 | – | 385
4 | Cn1nccc1-c1cc(F)c2c(c1)CCC2Nc1nc2nc(O[C@@H]3CO[C@H]4[C@@H]3OC[C@H]4O)[nH]c2cc1Cl (stereo partly shown) [Compound I-2-23] | 12 | 709 | –
5 | CC(=O)Nc1cc(F)c2c(c1)CCC2Nc1nc2nc(O[C@@H]3CO[C@H]4[C@@H]3OC[C@H]4O)[nH]c2cc1Cl (stereo partly shown) [Compound I-1-45] | 4.7 | 435 | –
6 | O[C@@H]1CO[C@H]2[C@@H]1OC[C@H]2Oc1nc2nc(NC3CCc4cc(OCCOCC(F)F)cc(F)c43)c(Cl)cc2[nH]1 (stereo partly shown) [Compound I-2-59] | 4.5 | 634 | –
7 | Cn1cccc(-c2cc(F)c3c(c2)CCC3Oc2nc3nc(O[C@@H]4CO[C@H]5[C@@H]4OC[C@H]5O)[nH]c3cc2Cl)c1=O (stereo partly shown) [Compound I-1-77] | 3.3 | 386 | –
8 | O[C@@H]1CO[C@H]2[C@@H]1OC[C@H]2Oc1nc2nc(NC3CCc4cc(OCCOC5CC5)cc(F)c43)c(Cl)cc2[nH]1 (stereo partly shown) [Compound I-2-40] | 4.1 | 604 | –
9 | NC(=O)COc1cnc2c(c1)CCC2Nc1nc2nc(O[C@@H]3CO[C@H]4[C@@H]3OC[C@H]4O)[nH]c2cc1Cl (stereo partly shown) [Compound I-1-47] | 14 | 390 | –
10 | O[C@@H]1CO[C@H]2[C@@H]1OC[C@H]2Oc1nc2nc(NC3CCc4cc(-c5ccnnc5)cc(F)c43)c(Cl)cc2[nH]1 (stereo partly shown) [Compound I-1-91] | 1.2 | 466 | –
11 | COCn1cc(-c2cc(F)c3c(c2)CC[C@@H]3Nc2nc3[nH]c(O[C@@H]4CO[C@H]5[C@@H]4OC[C@H]5O)nc3cc2Cl)cn1 [Compound I-2-17] | 1.4 | 720 | –
12 | O[C@@H]1CO[C@H]2[C@@H]1OC[C@H]2Oc1nc2nc(N[C@H]3CCc4cc(-c5ccc(C(F)(F)F)nc5)cc(F)c43)c(Cl)cc2[nH]1 [Compound I-2-67] | 29 | 683 | –
13 | O[C@@H]1CO[C@H]2[C@@H]1OC[C@H]2Oc1nc2nc(NC3CCc4cc(C5=CCOCC5)cnc43)c(Cl)cc2[nH]1 (stereo partly shown) [Compound I-1-48] | 15 | 393 | –
14 | Cn1cc(-c2cc(F)c3c(c2)CCC3Nc2nc3nc(O[C@@H]4CO[C@H](CO)C4)[nH]c3cc2Cl)cn1 (single isomer, unassigned) [Compound I-1-29] | 1.9 | 426 | –
15 | OC/C=C/c1cnc2c(c1)CCC2Nc1nc2nc(O[C@@H]3CO[C@H]4[C@@H]3OC[C@H]4O)[nH]c2cc1Cl (stereo partly shown) [Compound I-1-6] | 6.8 | 516 | –
16 | COCCOc1cc(F)c2c(c1)CCC2Nc1nc2nc(O[C@@H]3CO[C@H](CO)C3)[nH]c2cc1Cl (stereo partly shown) [Compound I-1-104] | 2.3 | 423 | –
17 | CC1(COc2cc(F)c3c(c2)CCC3Nc2nc3nc(O[C@@H]4CO[C@H]5[C@@H]4OC[C@H]5O)[nH]c3cc2Cl)COC1 (stereo partly shown) [Compound I-2-54] | 1.5 | 643 | –
18 | O[C@@H]1CO[C@H]2[C@@H]1OC[C@H]2Oc1nc2nc(NC3CCc4cc(OC5COC5)cc(F)c43)c(Cl)cc2[nH]1 (stereo partly shown) [Compound I-2-51] | 4.7 | 688 | –
19 | CC(C)(O)Cn1cc(-c2cc(F)c3c(c2)CC[C@@H]3Nc2nc3nc(O[C@@H]4CO[C@H]5[C@@H]4OC[C@H]5O)[nH]c3cc2Cl)cn1 [Compound I-2-73] | 1.4 | 608 | –
20 | O[C@@H]1CO[C@H]2[C@@H]1OC[C@H]2Oc1nc2nc(NC3CCc4cc(OC5CC6(COC6)C5)cc(F)c43)c(Cl)cc2[nH]1 (stereo partly shown) [Compound I-2-60] | 6.7 | 634 | –
21 | COCC(=O)Nc1cc(F)c2c(c1)CCC2Nc1nc2nc(O[C@@H]3CO[C@H]4[C@@H]3OC[C@H]4O)[nH]c2cc1Cl (stereo partly shown) [Compound I-1-105] | 4.1 | 434 | –
22 | COCCOc1cnc2c(c1)CCC2Nc1nc2nc(O[C@@H]3CO[C@H]4[C@@H]3OC[C@H]4O)[nH]c2cc1Cl (stereo partly shown) [Compound I-1-11] | 9.8 | 606 | –
23 | CC(C)(O)/C=C/c1cc(F)c2c(c1)CCC2Nc1nc2nc(O[C@@H]3CO[C@H]4[C@@H]3OC[C@H]4O)[nH]c2cc1Cl (stereo partly shown) [Compound I-2-37] | 3.2 | 645 | –
24 | NC(=O)COc1cc(F)c2c(c1)CCC2Nc1nc2nc(O[C@@H]3CO[C@H]4[C@@H]3OC[C@H]4O)[nH]c2cc1Cl (stereo partly shown) [Compound I-1-42] | 2.1 | 391 | –
25 | COCCNc1cnc2c(c1)CCC2Nc1nc2nc(O[C@@H]3CO[C@H]4[C@@H]3OC[C@H]4O)[nH]c2cc1Cl (stereo partly shown) [Compound I-1-14] | 33 | 371 | –
26 | N#CCn1cc(-c2cc(F)c3c(c2)CC[C@@H]3Nc2nc3nc(O[C@@H]4CO[C@H]5[C@@H]4OC[C@H]5O)[nH]c3cc2Cl)cn1 [Compound I-2-78] | 2.5 | 692 | –
27 | O[C@@H]1CO[C@H]2[C@@H]1OC[C@H]2Oc1nc2nc(NC3CCc4cc(Br)cnc43)c(Cl)cc2[nH]1 (stereo partly shown) [Compound I-1-4] | 11 | 547 | –
28 | O=c1[nH]cc(-c2cc(F)c3c(c2)CC[C@@H]3Nc2nc3nc(O[C@@H]4CO[C@H]5[C@@H]4OC[C@H]5O)[nH]c3cc2Cl)cc1F [Compound I-2-63] | 3.9 | 653 | –
29 | C/C=C/c1cc(F)c2c(c1)CCC2Oc1nc2nc(O[C@@H]3CO[C@H]4[C@@H]3OC[C@H]4O)[nH]c2cc1Cl (stereo partly shown) [Compound I-1-72] | 13 | 375 | –
